How the values were obtained:
[1] = target: GSK3β (Glycogen synthase kinase-3 beta) (Homo sapiens, UniProt P49841); assay: Assay 6 GSK3β assay (ThermoFisher Z-Lyte FRET); assay type: biochemical; conditions: ATP Conc: 10 μM, geometric mean; read-out: Assay 6 (GSK3β FRET-Z-Lyte Cr) GMean IC50
Method: This assay measures the activity of the compounds at GSK33 (Glycogen synthase kinase-3 beta).
The test compounds were screened in 1% DMSO (final) in the well. For 10 point titrations, 3-fold serial dilutions are conducted from the starting concentration of 10 PM.
Bar-coded Corning, low volume NBS, black 384-well plate • 1. 2.5 μL—4× Test Compound or 100 nL 100× plus 2.4 μL kinase buffer • 2. 5 μL—2× Peptide/Kinase Mixture • 3. 2.5 μL—4×ATP Solution • 4. 30-second plate shake • 5. 60-minute Kinase Reaction incubation at room temperature • 6. 5 μL—Development Reagent Solution • 7. 30-second plate shake • 8. 60-minute Development Reaction incubation at room temperature • 9. Read on fluorescence plate reader and analyse the data
In step 2, the 2×GSK3β (GSK3 beta)/Ser/Thr (Glycogen synthase kinase-3 beta/Serine/Threonine) 09 mixture is prepared in 50 mM HEPES (4-(2-hydroxyethyl)-1-piperazineethanesulfonic acid) pH 7.5, 0.01% BRIJ-35, 10 mM MgCl2, 1 mM EGTA (egtazic acid). The final 10 μL Kinase Reaction consists of 0.22-0.92 ng GSK3β (GSK3 beta) and 2 PM Ser/Thr 09 in 50 mM HEPES pH 7.5, 0.01% BRIJ-35, 10 mM MgCl2, 1 mM EGTA.
In step 3 the ATP Solution is diluted to a 4× working concentration in Kinase Buffer (50 mM HEPES pH 7.5, 0.01% BRIJ-35, 10 mM MgCl2, 1 mM EGTA).
In Step 6 the Development Reagent is diluted 1:512 in Development Buffer (10× Novel PKC Lipid Mix: 2 mg/mL Phosphatidyl Serine, 0.2 mg/mL DAG in 20 mM HEPES, pH 7.4, 0.3% CHAPS).
SelectScreen® Kinase Profiling Service uses XLfit from IDBS. The dose response curve is curve fit to model number 205 (sigmoidal dose-response model).

PCSK9 = PCSK9 (Homo sapiens, UniProt Q8NBP7, G670E/V474I); assay: biochemical
PCSK9, sequence (Q8NBP7 with tags, fused parts or gaps V474I/G670E): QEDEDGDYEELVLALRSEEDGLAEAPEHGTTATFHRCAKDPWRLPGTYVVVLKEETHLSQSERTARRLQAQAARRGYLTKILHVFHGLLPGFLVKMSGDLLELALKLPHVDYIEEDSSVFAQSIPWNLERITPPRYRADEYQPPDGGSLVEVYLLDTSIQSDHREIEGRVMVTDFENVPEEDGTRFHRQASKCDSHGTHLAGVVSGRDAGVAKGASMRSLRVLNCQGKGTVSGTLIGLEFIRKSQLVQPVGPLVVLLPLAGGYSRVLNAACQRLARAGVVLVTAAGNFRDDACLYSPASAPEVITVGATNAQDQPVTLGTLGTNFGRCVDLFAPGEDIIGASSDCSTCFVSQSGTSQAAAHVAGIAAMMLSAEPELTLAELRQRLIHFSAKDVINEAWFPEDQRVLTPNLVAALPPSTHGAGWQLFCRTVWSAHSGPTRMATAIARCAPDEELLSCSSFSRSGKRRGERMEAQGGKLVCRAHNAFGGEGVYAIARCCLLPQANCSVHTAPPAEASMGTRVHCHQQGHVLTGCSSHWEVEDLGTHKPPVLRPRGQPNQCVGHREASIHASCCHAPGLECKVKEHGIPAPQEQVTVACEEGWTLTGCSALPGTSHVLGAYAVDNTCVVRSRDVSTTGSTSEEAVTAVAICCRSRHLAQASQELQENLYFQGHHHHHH

[2] = target: T1, potassium ion channel hERG (Homo sapiens, UniProt Q12809); assay: Assay 5 hERG assay (patch clamp, CHO cells over-expressing hERG); assay type: cell-based; conditions: SyncroPatch 384PE, room temperature, geometric mean, read-out: Assay 5 (hERG Hu CHO if EPh CR-Syncro) GMean IC50
T1 construct: expressed in transfected cells; host or cells: Chinese hamster ovary K1 (CHO)
T1 sequence (Q12809 whole entry): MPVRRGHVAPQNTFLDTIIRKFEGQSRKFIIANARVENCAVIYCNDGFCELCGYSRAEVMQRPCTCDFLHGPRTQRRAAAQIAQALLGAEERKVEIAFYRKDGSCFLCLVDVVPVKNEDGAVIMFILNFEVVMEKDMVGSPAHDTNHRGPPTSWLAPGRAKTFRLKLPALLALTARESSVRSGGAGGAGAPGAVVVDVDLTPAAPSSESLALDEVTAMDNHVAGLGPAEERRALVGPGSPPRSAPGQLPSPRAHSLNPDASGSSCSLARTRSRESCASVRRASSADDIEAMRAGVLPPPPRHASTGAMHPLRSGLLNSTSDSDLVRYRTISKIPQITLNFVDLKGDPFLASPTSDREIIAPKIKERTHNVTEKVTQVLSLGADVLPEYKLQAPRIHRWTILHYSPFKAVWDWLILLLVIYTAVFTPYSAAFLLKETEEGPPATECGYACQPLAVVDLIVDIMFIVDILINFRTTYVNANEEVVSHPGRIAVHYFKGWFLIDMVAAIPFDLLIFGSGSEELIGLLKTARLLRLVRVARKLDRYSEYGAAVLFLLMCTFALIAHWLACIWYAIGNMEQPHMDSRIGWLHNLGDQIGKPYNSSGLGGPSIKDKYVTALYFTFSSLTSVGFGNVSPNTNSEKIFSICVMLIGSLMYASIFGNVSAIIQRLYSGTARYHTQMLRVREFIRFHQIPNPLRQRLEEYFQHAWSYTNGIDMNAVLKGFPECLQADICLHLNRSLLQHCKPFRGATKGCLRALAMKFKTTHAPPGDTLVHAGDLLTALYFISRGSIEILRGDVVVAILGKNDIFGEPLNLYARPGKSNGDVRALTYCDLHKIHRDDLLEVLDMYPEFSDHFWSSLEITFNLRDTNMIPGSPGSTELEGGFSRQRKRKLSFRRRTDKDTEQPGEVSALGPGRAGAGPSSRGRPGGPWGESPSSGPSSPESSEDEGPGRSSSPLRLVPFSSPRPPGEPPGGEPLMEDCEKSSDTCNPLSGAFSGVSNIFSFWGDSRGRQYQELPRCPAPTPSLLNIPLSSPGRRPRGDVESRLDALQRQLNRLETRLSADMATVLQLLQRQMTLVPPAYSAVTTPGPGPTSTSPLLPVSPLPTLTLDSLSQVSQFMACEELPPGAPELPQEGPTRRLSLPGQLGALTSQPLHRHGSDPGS
Method: This assay (human Ether-d-go-go-Related Gene) measures activity of the compounds at the potassium ion channel hERG (human Ether-d-go-go-Related Gene).
Experiments were performed on the SyncroPatch 384PE high throughput patch clamp platform at room temperature and medium resistance chips with 4 patch holes per site. Chinese hamster ovary K1 (CHO) cell lines over-expressing the ion channel of choice (hERG) were used in assay-ready format and kept in liquid nitrogen or were used from live culture. Cells were either thawed and diluted in HBSS or were detached from flasks and resuspended in HBSS. HBSS comprised 140 mM NaCl, 4 mM KCl, 10 mM HEPES and 5 mM Glucose (pH7.4). The internal patch clamp solution was KF 120 mM, KCl 20 mM, HEPES 10 mM, EGTA 10 mM, and 25 PM Escin (pH 7.2). After the sealing process was complete, the external solution was exchanged for external patch clamp solution comprising NaCl 80 mM, KCl 4 mM, HEPES 10 mM, CaCl2 2 mM, MgCl2 1 mM, glucose 5 mM, and NMDG 60 mM (pH 7.4). All solutions were stored at room temperature, except Escin, which was stored at 4° C. All test compounds were dispensed in greiner-bio 384 well plates and tested in a 6 point cumulative assay (final DMSO concentration 0.33%). Only wells that passed previously agreed acceptance criteria for this platform were used in this analysis (30 MegaOhm seal resistance, Z prime >0.4 and current size >0.2 nA). […]

GSK3β (Glycogen synthase kinase-3 beta), sequence (P49841 whole entry): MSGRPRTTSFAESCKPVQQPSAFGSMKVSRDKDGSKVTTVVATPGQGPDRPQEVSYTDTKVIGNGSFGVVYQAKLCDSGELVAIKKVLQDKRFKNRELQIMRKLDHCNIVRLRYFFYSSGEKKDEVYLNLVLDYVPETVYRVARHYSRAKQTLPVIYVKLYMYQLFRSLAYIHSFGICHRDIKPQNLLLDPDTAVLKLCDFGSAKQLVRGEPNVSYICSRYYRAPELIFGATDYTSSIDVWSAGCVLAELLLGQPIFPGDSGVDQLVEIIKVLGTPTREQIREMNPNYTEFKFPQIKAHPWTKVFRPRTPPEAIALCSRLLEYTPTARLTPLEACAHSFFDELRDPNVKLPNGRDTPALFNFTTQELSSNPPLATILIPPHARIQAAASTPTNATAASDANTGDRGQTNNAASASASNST

SMILES | IC50 [1] | IC50 (PCSK9) | IC50 [2]
Cc1cnc(NCC(CCO)CNc2ccc(-n3cccc(C)c3=O)cn2)nn1 (racemic) [Example 315, rac-6′-((4-Hydroxy-2-(((6-methyl-1,2,4-triazin-3-yl)amino)methyl)butyl)amino)-3-methyl-2H-[1,3′-bipyridin]-2-one] | > 10 µM | 1.29 µM | > 40.1 µM
Cc1ccc(=O)n(-c2ccc(NCC(CCO)CNc3ncc(C)nn3)nc2)c1 (racemic) [Example 316, rac-6′-((4-Hydroxy-2-(((6-methyl-1,2,4-triazin-3-yl)amino)methyl)butyl)amino)-5-methyl-2H-[1,3′-bipyridin]-2-one] |  | 7.43 µM | > 40 µM
Cc1cnc(NCC(CCO)CNc2ccc(-n3c(=O)ccc4ccccc43)cn2)nn1 (racemic) [Example 318, rac-1-(6-((4-Hydroxy-2-(((6-methyl-1,2,4-triazin-3-yl)amino)methyl)butyl)amino)pyridin-3-yl)quinolin-2(1H)-one] |  | 0.284 µM | > 40 µM
Cc1cnc(NCC(CCO)CNc2ccc(-n3c(=O)n(C)c4cccnc43)cn2)nn1 (racemic) [Example 319, rac-3-(6-((4-Hydroxy-2-(((6-methyl-1,2,4-triazin-3-yl)amino)methyl)butyl)amino)pyridin-3-yl)-1-methyl-1,3-dihydro-2H-imidazo[4,5-b]pyridin-2-one] |  | 0.705 µM | > 40 µM
Cc1cnc(NCC(CCO)CNc2ccc(-n3c(=O)ccc4cccnc43)cn2)nn1 (racemic) [Example 320, rac-1-(6-((4-Hydroxy-2-(((6-methyl-1,2,4-triazin-3-yl)amino)methyl)butyl)amino)pyridin-3-yl)-1,8-naphthyridin-2(1H)-one] |  | 0.559 µM | > 40 µM
Cc1cnc(NCC(CCO)CNc2ccc(-n3c(=O)n(C)c4ccccc43)cn2)nn1 (racemic) [Example 321, rac-1-(6-((4-Hydroxy-2-(((6-methyl-1,2,4-triazin-3-yl)amino)methyl)butyl)amino)pyridin-3-yl)-3-methyl-1,3-dihydro-2H-benzo[d]imidazol-2-one] |  | 0.297 µM | > 40 µM
CCOC(=O)c1cnc(N[C@H]2CC[C@H](Nc3ccc(-n4ccccc4=O)cn3)C2)nn1 [Compound 10, Ethyl 3-(((1S,3S)-3-((2-oxo-2H-[1,3′-bipyridin]-6′-yl)amino)cyclopentyl)amino)-1,2,4-triazine-6-carboxylate] | > 10 µM | 0.797 µM | > 40 µM
Fc1cccc(F)c1-c1ccc(N[C@H]2CC[C@H](Nc3ncc(C4CC4)nn3)C2)nc1 [Example 53] | > 10 µM |  | 3.4 µM
COc1cccc(F)c1-c1ccc(N[C@H]2CC[C@H](Nc3ncc(C4CC4)nn3)C2)nc1 [Example 54] | > 10 µM |  | 4.3 µM
O=c1cccnn1-c1cnc(N[C@H]2CC[C@H](Nc3ncc(C4CC4)nn3)C2)cn1 [Example 59, 2-(5-(((1S,3S)-3-((6-Cyclopropyl-1,2,4-triazin-3-yl)amino)cyclopentyl)amino)pyrazin-2-yl)pyridazin-3(2H)-one] | > 10 µM | 0.045 µM | > 40 µM
Cn1cccc(-c2ccc(N[C@H]3CC[C@H](Nc4ncc(C5CC5)nn4)C3)nc2)c1=O [Example 60, 6′-(((1S,3S)-3-((6-Cyclopropyl-1,2,4-triazin-3-yl)amino)cyclopentyl)amino)-1-methyl-[3,3′-bipyridin]-2(1H)-one] | > 10 µM | 0.0091 µM | 21 µM
N#Cc1ccc(F)c(-c2ccc(N[C@H]3CC[C@H](Nc4ncc(C5CC5)nn4)C3)nc2)n1 [Example 61, 6′-(((1S,3S)-3-((6-Cyclopropyl-1,2,4-triazin-3-yl)amino)cyclopentyl)amino)-3-fluoro-[2,3′-bipyridine]-6-carbonitrile] | > 10 µM | 0.184 µM | 5.6 µM
NC(=O)CNC(=O)c1cnc(N[C@H]2CC[C@H](Nc3ccc(-n4ccccc4=O)cn3)C2)nn1 [Example 68, N-(2-Amino-2-oxoethyl)-3-(((1S,3S)-3-((2-oxo-2H-[1,3′-bipyridin]-6′-yl)amino)cyclopentyl)amino)-1,2,4-triazine-6-carboxamide] | > 10 µM | 0.168 µM | > 40 µM
Cn1cccc(-c2cnc(N[C@H]3CC[C@H](Nc4ncc(C5CC5)nn4)C3)cn2)c1=O [Example 113, 3-(5-(((1S,3S)-3-((6-Cyclopropyl-1,2,4-triazin-3-yl)amino)cyclopentyl)amino)pyrazin-2-yl)-1-methylpyridin-2(1H)-one] | > 10 µM | 0.041 µM | > 40 µM
Cn1cccc(-c2cnc(N[C@H]3CC[C@H](Nc4ncc(C5CC5)nn4)C3)nc2)c1=O [Example 115, 3-(2-(((1S,3S)-3-((6-Cyclopropyl-1,2,4-triazin-3-yl)amino)cyclopentyl)amino)pyrimidin-5-yl)-1-methylpyridin-2(1H)-one] | > 10 µM | 0.017 µM | > 40 µM
O=c1cccnn1-c1cnc(N[C@H]2CC[C@H](Nc3ncc(C4CC4)nn3)C2)nc1 [Example 119, 2-(2-(((1S,3S)-3-((6-Cyclopropyl-1,2,4-triazin-3-yl)amino)cyclopentyl)amino)pyrimidin-5-yl)pyridazin-3(2H)-one] | > 10 µM | 0.073 µM | > 40 µM
O=c1ccncn1-c1cnc(N[C@H]2CC[C@H](Nc3ncc(C4CC4)nn3)C2)nc1 [Example 120, 2′-(((1S,3S)-3-((6-Cyclopropyl-1,2,4-triazin-3-yl)amino)cyclopentyl)amino)-6H-[1,5′-bipyrimidin]-6-one] | > 10 µM | 0.143 µM | > 40.1 µM
CN(CCO)C(=O)c1cnc(N[C@H]2CC[C@H](Nc3ccc(-n4ccccc4=O)cn3)C2)nn1 [Example 151, N-(2-Hydroxyethyl)-N-methyl-3-(((1S,3S)-3-((2-oxo-2H-[1,3′-bipyridin]-6′-yl)amino)cyclopentyl)amino)-1,2,4-triazine-6-carboxamide] | > 10 µM | 2.25 µM | > 40.1 µM
C#CCN(C)C(=O)c1cnc(N[C@H]2CC[C@H](Nc3ccc(-n4ccccc4=O)cn3)C2)nn1 [Example 152, N-Methyl-3-(((1S,3S)-3-((2-oxo-2H-[1,3′-bipyridin]-6′-yl)amino)cyclopentyl)amino)-N-(prop-2-yn-1-yl)-1,2,4-triazine-6-carboxamide] | > 10 µM | 0.244 µM | > 40.1 µM
COc1c(C(=O)O)ccc(F)c1-c1ccc(N[C@H]2CC[C@H](Nc3ncc(C4CC4)nn3)C2)nc1 [Example 167, 3-(6-(((1S,3S)-3-((6-Cyclopropyl-1,2,4-triazin-3-yl)amino)cyclopentyl)amino)pyridin-3-yl)-4-fluoro-2-methoxybenzoic acid] | > 10 µM |  | > 40.1 µM
COc1c(C#N)ccc(F)c1-c1ccc(N[C@H]2CC[C@H](Nc3ncc(C4CC4)nn3)C2)nc1 [Example 168, 3-(6-(((1S,3S)-3-((6-Cyclopropyl-1,2,4-triazin-3-yl)amino)cyclopentyl)amino)pyridin-3-yl)-4-fluoro-2-methoxybenzonitrile] | > 10 µM |  | 3.1 µM
